Literature values in US6645913B2, “Adjuvant composition” (Cognis Corporation, priority 1999, dated 2003).

Conditions: glyphosate in acid form

**Q.** With `O=C(O)CNCP(=O)(O)O` [glyphosate, N-phosphonomethylglycine] as the molecule, how does the water solubility read?
**A.** about 1.2%
